Source: patent US20060089395A1, “Nf-kb activation inhibitors” (priority 2002, published 2006)
“Also recorded” adds a separate entry of the source. Like-named read-outs stand apart in the source and are kept apart here.

Legend:
IL-6 = assay: Inhibition of IL-6 production by TNFα stimulation in synovial fibroblasts derived from a rheumatoid patient (ELISA); type: cell-based, human; settings: for IC50: synovial fibroblasts, read-out: Inhibition against Mediator Release IC50(nM) IL-6; for Inhibitory ratios (%) at 1000 nM, IL-6: in parentheses
Method: (§1) Synovial fibroblasts (Human Synoviocyte (RA-Positive), Toyobo, T4040-05) were cultured for 3 days in a medium containing 10 ng/ml of TNFα and a test compound. IL-6 and IL-8 in the supernatant were measured by the ELISA method, and PGE2 (prostaglandin E2) was measured by the EIA method.

IL-8 = assay: Inhibition of IL-8 production by TNFα stimulation in synovial fibroblasts derived from a rheumatoid patient (ELISA); type: cell-based, human; settings: for inhibition at 1 µM: 1000 nM, in parentheses, read-out: Inhibitory ratios (%) at 1000 nM, IL-8; for IC50: synovial fibroblasts, read-out: Inhibition against Mediator Release IC50(nM) IL-8
Method: as §1

PGE2 = assay: Inhibition of PGE2 production by TNFα stimulation in synovial fibroblasts derived from a rheumatoid patient (EIA); type: cell-based, human; settings: for IC50: synovial fibroblasts, read-out: Inhibition against Mediator Release IC50(nM) PGE2; for Inhibitory ratios (%) at 1000 nM, PGE2: in parentheses
Method: as §1

NF-κ B = assay: Inhibitory activity of NF-κ B activation, luciferase reporter assay in HepG2 under TNF-α stimulation; type: cell-based, human; settings: HepG2, TNF-α (40 ng/ml), 4 hours; for inhibition at 1 µg/mL / inhibition at 10 µg/mL: Homo sapiens; for inhibition at 1 µg/mL / Inhibitory Ratio of NF-κ B Activation(%) Drug Concentration 1 μg/mL: 1 μg/mL; for inhibition at 1 µg/mL: read-out: Inhibitory Ratio of NF-κ B Activation(%) Drug Concentration 1 μg/mL; for inhibition at 10 µg/mL / Inhibitory Ratio of NF-κ B Activation(%) Drug Concentration 10 μg/mL: 10 μg/mL; for inhibition at 10 µg/mL: read-out: Inhibitory Ratio of NF-κ B Activation(%) Drug Concentration 10 μg/mL
How it was run: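 Readout is firefly luciferase luminescence, expressed as inhibition versus compound-free wells. Before this, HepG2 cells carrying a transiently transfected 5×NF-κB-site luciferase plasmid (6–24 h post-transfection) received test compound plus TNF-α (40 ng/ml) for 4 h.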

[1] = system: Vascular smooth muscle cells of normal coronary artery (Cryo CASMC); assay: Inhibitory test against proliferation of vascular smooth muscle cells of normal coronary artery under proliferation stimulation (MTS assay); type: cell-based; settings: FGF and EGF stimulation, 72 hours
Method: Vascular smooth muscle cells of normal coronary artery (Cryo CASMC) were cultured for 2 hours in the presence or absence of a test substance in DMEM medium containing 0.5% of FBS and insulin (5 u g/ml). Then, FGF and EGF were added for proliferation stimulation. The mixture was cultured for 72 hours and proliferation of the cells were measured by the MTS assay. The results aree shown in the following

[2] = Homo sapiens, Fibroblast, comparison compounds, TNFα stimulation
[3] = Homo sapiens, Fibroblast, 72 h, 10 ng/ml TNFα, 3 days
[4] = rheumatic patient-derived synovial fibroblasts under TNFα stimulation

Compound | IC50 (IL-6; [2]) | inhibition at 1 µM (IL-8; Homo sapiens, Fibroblast, 72 h) | IC50 (IL-8; [2]) | IC50 (PGE2; [2]) | Inhibitory Ratio of NF-κ B Activation(%) Drug Concentration 1 μg/mL (NF-κ B) | Inhibitory Ratio of NF-κ B Activation(%) Drug Concentration 10 μg/mL (NF-κ B) | also measured
O=C(Nc1ccc(-c2ccccc2)cc1)c1cc(C(F)(F)F)ccc1O [reference compound] | 140 nM | -67% | > 1000 nM | 292 nM |  |  | 
O=C(Nc1ccc(F)cc1F)c1cc(I)ccc1O [reference compound] | 85 nM | -23% | > 1000 nM | 730 nM |  |  | 
COc1ccc(C(C)(C)C)cc1NC(=O)c1cc(Cl)ccc1O [Compound No. 135, 5-chloro-N-{5-[(1,1-dimethyl)ethyl]-2-methoxyphenyl}-2-hydroxybenzamide] |  |  |  |  |  |  | inhibition at 1 µg/mL (NF-κ B): 86.2%; inhibition at 10 µg/mL (NF-κ B): 99.2%; IC50 (IL-6; [3]): 61 nM; inhibition of the production of IL-6 (in words) (IL-6; [4]): potently inhibited; also recorded: strongly inhibited; inhibition of the production of IL-8 (in words) (IL-8; [4]): potently inhibited; also recorded: strongly inhibited; IC50 (PGE2; [3]): 41 nM; inhibition of the production of PGE2 (in words) (PGE2; [4]): potently inhibited; also recorded: strongly inhibited
O=C(Nc1ccc(C(F)(F)F)cc1Cl)c1cc(Br)ccc1O [Reference Example 7, N-[2-chloro-4-(trifluoromethyl)phenyl]-5-bromo-2-hydroxybenzamide, reference compound] | > 1000 nM | 16% | > 1000 nM | > 1000 nM |  |  | Inhibitory ratios (%) at 1000 nM, IL-6 (IL-6): 27%; Inhibitory ratios (%) at 1000 nM, PGE2 (PGE2): 10%
O=C(Nc1cc(C(F)(F)F)cc(C(F)(F)F)c1)c1ccc2ccccc2c1O [Compound No. 71] |  |  |  |  | 89.6% | 95.0% | Inhibitory Ratio of Proliferation(%) Compound Concentration 250 nM [1]: 81.6%; Inhibitory Ratio of Proliferation(%) Compound Concentration 500 nM [1]: 92.4%
O=C(Nc1cc(C(F)(F)F)cc(C(F)(F)F)c1)c1c(O)ccc2ccccc12 [Compound No. 73] |  |  |  |  | 93.1% | 97.9% | IC50 (IL-6; 10 ng/ml TNFα, 3 days): 337 nM; IC50 (IL-8; 10 ng/ml TNFα, 3 days): 670 nM; IC50 (PGE2; 10 ng/ml TNFα, 3 days): 662 nM
COc1ccc(Oc2ccc(C(F)(F)F)cc2NC(=O)c2cc(Cl)ccc2O)cc1 [Compound No. 253] |  |  |  |  | 96.3% | 99.5% | Inhibitory Ratio of Proliferation(%) Compound Concentration 250 nM [1]: 84.1%; Inhibitory Ratio of Proliferation(%) Compound Concentration 500 nM [1]: 91%
O=C(Nc1cc(C(F)(F)F)cc(C(F)(F)F)c1)c1cc(C=Cc2ccccc2)ccc1O [Compound No. 19] |  |  |  |  | 95.5% | 96.9% | Inhibitory Ratio of Proliferation(%) Compound Concentration 250 nM [1]: 34.0%; Inhibitory Ratio of Proliferation(%) Compound Concentration 500 nM [1]: 88.6%
O=C(Nc1cc(C(F)(F)F)ccc1C(F)(F)F)c1cc(Br)ccc1O [Compound No. 268] |  |  |  |  | 87.1% | 98.4% | Inhibitory Ratio of Proliferation(%) Compound Concentration 250 nM [1]: 5.6%; Inhibitory Ratio of Proliferation(%) Compound Concentration 500 nM [1]: 9.8%
COc1ccc(C(F)(F)F)cc1NC(=O)c1cc(Br)ccc1O [Compound No. 94] |  |  |  |  | 76.6% | 93.4% | IC50 (PGE2; 10 ng/ml TNFα, 3 days): 266 nM
O=C(Nc1cc(Cl)cc(Cl)c1)c1cc(Cl)ccc1O [Compound No. 125] |  |  |  |  | 84.5% | 96.8% | IC50 (IL-6; 10 ng/ml TNFα, 3 days): 903 nM; IC50 (PGE2; 10 ng/ml TNFα, 3 days): 966 nM
O=C(Nc1cccc(C(F)(F)F)c1)c1cc(Br)ccc1O [Reference Example 4, N-[3-(trifluoromethyl)phenyl]-5-bromo-2-hydroxybenzamide, reference compound] | 690 nM | 16% | > 1000 nM | 413 nM |  |  | 
O=C(Nc1cc(Br)cc(C(F)(F)F)c1)c1cc(Br)ccc1O [Compound No. 86] |  |  |  |  | 96.7% | 98.7% | IC50 (IL-6; 10 ng/ml TNFα, 3 days): 565 nM; IC50 (PGE2; 10 ng/ml TNFα, 3 days): 562 nM
CC(=O)c1ccc(NC(=O)c2cc(I)ccc2O)cc1 [reference compound] | 82 nM | -5.9% | > 1000 nM | > 1000 nM |  |  | Inhibitory ratios (%) at 1000 nM, PGE2 (PGE2): −3.9%
O=C(Nc1ccc(Cl)c(C(F)(F)F)c1)c1cc(Br)ccc1O [Reference Example 5, N-[4-chloro-3-(trifluoromethyl)phenyl]-5-bromo-2-hydroxybenzamide, reference compound] | 91 nM | 16% | > 1000 nM | 57 nM |  |  | 
O=C(Nc1ccc(Cl)c(Cl)c1)c1cc(Br)ccc1O [drawing 563, reference compound] | 205 nM | -12% | > 1000 nM | 208 nM |  |  | 
O=C(Nc1cc(C(F)(F)F)cc(C(F)(F)F)c1)c1c(O)cccc1F [Compound No. 63] |  |  |  |  | 85.4% | 85.0% | IC50 (IL-6; 10 ng/ml TNFα, 3 days): 513 nM; IC50 (IL-8; 10 ng/ml TNFα, 3 days): 786 nM; IC50 (PGE2; 10 ng/ml TNFα, 3 days): 439 nM
O=C(Nc1ccc(Cl)cc1C(F)(F)F)c1cc(Cl)ccc1O [Reference Example 3, N-[4-chloro-2-(trifluoromethyl)phenyl]-5-chloro-2-hydroxybenzamide, reference compound] | > 1000 nM | -43% | > 1000 nM | > 1000 nM |  |  | Inhibitory ratios (%) at 1000 nM, IL-6 (IL-6): −17%; Inhibitory ratios (%) at 1000 nM, PGE2 (PGE2): 20%
O=C(Nc1ccc(C(F)(F)F)cc1)c1cc(Cl)ccc1O [Reference Example 6, N-[4-(trifluoromethyl)phenyl]-5-chloro-2-hydroxybenzamide, reference compound] | > 1000 nM | 4.2% | > 1000 nM | > 1000 nM |  |  | Inhibitory ratios (%) at 1000 nM, IL-6 (IL-6): 36%; Inhibitory ratios (%) at 1000 nM, PGE2 (PGE2): −24%
O=C(Nc1ccc(F)cc1F)c1cc([N+](=O)[O-])ccc1O [drawing 564, reference compound] | 248 nM | -4.5% | > 1000 nM | 62 nM |  |  | 
O=C(Nc1cc(C(F)(F)F)cc(C(F)(F)F)c1)c1cc(-c2ccsc2)ccc1O [Compound No. 29] |  |  |  |  | 81.7% | 92.9% | Inhibitory Ratio of Proliferation(%) Compound Concentration 250 nM [1]: 52.2%; Inhibitory Ratio of Proliferation(%) Compound Concentration 500 nM [1]: 90.4%
O=C(Nc1ccc(C(F)(F)F)cc1C(F)(F)F)c1cc(Cl)ccc1O [Reference Example 1, N-[2,4-bis(trifluoromethyl)phenyl]-5-chloro-2-hydroxybenzamide, reference compound] | 202 nM | -70% | > 1000 nM | > 1000 nM |  |  | Inhibitory ratios (%) at 1000 nM, PGE2 (PGE2): 1.2%
O=C(Nc1cc(C(F)(F)F)cc(C(F)(F)F)c1)c1cc(-n2cccc2)ccc1O [Compound No. 27] |  |  |  |  | 93.8% | 97.9% | IC50 (IL-6; 10 ng/ml TNFα, 3 days): 355 nM; IC50 (IL-8; 10 ng/ml TNFα, 3 days): 527 nM; IC50 (PGE2; 10 ng/ml TNFα, 3 days): 532 nM
O=C(Nc1ccccc1C(F)(F)F)c1cc(Cl)ccc1O [Reference Example 2, N-[2-(trifluoromethyl)phenyl]-5-chloro-2-hydroxybenzamide, reference compound] | 887 nM | 14% | > 1000 nM | 676 nM |  |  | 
O=C(Nc1nc(C(F)(F)F)c(Br)s1)c1cc(Br)ccc1O [Compound No. 187] |  |  |  |  | 85.3% | 94.4% | IC50 (IL-6; 10 ng/ml TNFα, 3 days): 649 nM; IC50 (PGE2; 10 ng/ml TNFα, 3 days): 414 nM
O=C(Nc1cc(C(F)(F)F)cc(C(F)(F)F)c1)c1cc(C#Cc2ccccc2)ccc1O [Compound No. 22, N-[3,5-bis(trifluoromethyl)phenyl]-2-hydroxy-5-(phenylethynyl)-benzamide] |  |  |  |  |  |  | inhibition at 1 µg/mL (NF-κ B): 83.9%; inhibition at 10 µg/mL (NF-κ B): 97.1%; IC50 (IL-6; [3]): 665 nM; IC50 (IL-8; [3]): 869 nM
